The conditions of assay [1]: rat; cited from earlier work.
The test system of assay [2] is human osteoblasts. The experiment in a line: Cellular proliferation test. To be noted: for cells proliferation (number of cells, colorimetric test at 540 nm): human osteoblasts, medium without FCS with BSA, increasing doses, 5 days, FIG. 1 / FIG. 2. Format: cell-based. As for the experimental part: (§1) The differentiated human osteoblasts were prepared starting from bone fragments obtained during surgical operation following the procedure described in Calcif. Tissue Int. 62: 362–365, 1998; and in Calcif. Tissue Int. 37: 453–460, 1985.
(§2) In short, bone fragments were undertaken to enzymatic digestion with collagenase (1 mg/ml) diluted in phosphate buffer in order to remove fibroblasts, haematic endothelial cells or bone marrow cells, if any.
(§3) The fragments so cleaned were maintained in culture in presence of a medium containing 20% of foetal calf serum (FCS) to obtain osteoblasts population for explant.
(§4) The cells so obtained were characterised to verify their osteoblastic phenotype then used for the experiments.
The cellular proliferation test was done growing the cells in 96 well plates, in medium without FCS, and with bovine serum albumin (BSA).
The cells were exposed to increasing doses of L-carnitine fumarate and isovaleryl L-carnitine fumarate. The positive control group was constituted by cells growing in presence of FCS (15%).
Every 24 ore, for 5 days, samples from plates in culture were fixed with a solution of paraformaldehyde at 3%, the cells were stained with crystal-violet at 0.5%, washed to eliminate the excess of stain and a solution of sodium citrate 0.1 M in ethanol was added. The number of the cells contained in the wells was evaluated by colorimetric test at 540 nm.

The next assay has as its system osteocalcine. The conditions noted are these: mice, during formation of the bone matrix; cited from earlier work.
Assay [3] concerns human osteoblasts. The assay can be described thus: Production of collagen by incorporation of 3H-proline. Format: cell-based. To be noted: FIG. 3. As for the experimental part: as §1, §2, §3, §4
The collagen production represents a method for the evaluation of the osteoblast activity.
This production was evaluated on semiconfluent cells grown on 24 wells plates, in medium without serum (FCS) containing 1 μCi/well of ^3H-proline, both in the wells of the control and in the wells where were present the tested compounds. After 4 hours of incubation in presence of the tracer the cells were lysed and undertaken to an extraction procedure (Journal of Bone and Mineral Research, 2000; Vol. 15(2); 188–97). […] The radioactivity of the cells, as index of the cells collagen synthesis, was evaluated with a beta-counter.

SMILES strings stand for the structures. Where a name gives a salt, the structure may show the parent alone.

`C[N+](C)(C)CC(O)CC(=O)[O-]` (racemic) [D,L-carnitine]: the bone calcium entry in assay [1] is listed as “increases the bone calcium”.

Consider `C[N+](C)(C)C[C@H](O)CC(=O)[O-].O=C(O)/C=C/C(=O)O` [L-carnitine fumarate, reference compound], for which the “cells proliferation (number of cells, colorimetric test at 540 nm)” value with human osteoblasts [2] was “cells proliferation induced by L-carnitine fumarate”. For the compound `C[N+](C)(C)C[C@H](O)CC(=O)[O-]` [L-carnitine], the “production of osteocalcine (index of better calcification)” value with osteocalcine is on record as “increase the production of osteocalcine”. Take `CC(=O)O[C@H](CC(=O)[O-])C[N+](C)(C)C` [acetyl L-carnitine]: the “production of osteocalcine (index of better calcification)” value with osteocalcine is on record as “reduces the production of this marker”.

On to `CC(C)CC(=O)O[C@H](CC(=O)[O-])C[N+](C)(C)C` [isovaleryl L-carnitine fumarate], for which the “production of collagen respect to the same doses of L-carnitine fumarate” value with human osteoblasts [3] (Student t test) is listed as “favouring activity for the production of collagen in a significant way”. Besides, the “production of collagen (3H-proline incorporation) respect to the control sample” value with human osteoblasts [3] (semiconfluent cells, medium without serum, 4 hours of incubation with tracer) is “increases the production of collagen in an higher way respect to the control sample”. Further, the “cells proliferation compared with L-carnitine fumarate” value with human osteoblasts [2] (FIG. 1 versus FIG. 2) is on record as “induces cells proliferation (FIG. 1) in a more potent way”. Besides, the “cellular proliferation activity at 10^-3 M compared with L-carnitine fumarate at 10^-2 M” value in the assay on human osteoblasts [2] (dose 10 times lower than that of L-carnitine fumarate) is “has the same cellular proliferation activity”. Further, the “cells proliferation (number of cells, colorimetric test at 540 nm)” value in the assay with human osteoblasts [2] was “promotes cells proliferation”.
